Key:
vaccinia virus = conditions: reference [10]; cited from earlier work
TT-TK [1] = test system: TT-TK; parameters: species or system C57BL mice; conditions: mouse, in vivo
VTT [2] = type: cell-based, vaccinia virus Tiantan strain
TT-EnvTK = type: cell-based, recombinant vaccinia virus Tiantan strain
VTT [3] = test system: VTT; parameters: species or system C57BL mice; conditions: mouse, in vivo
TT-TK [4] = type: cell-based, recombinant vaccinia virus Tiantan strain

For `Nc1nc(O)c2ncn(COC(CO)CO)c2n1` [GCV, ganciclovir], which EC50 (vaccinia virus) is on record?
Its EC50 is greater than 300 µM.

What about the “virus titre in mice ovaries, TT-TK inoculation, GCV injected” value (TT-TK [1]) of the same compound?
Its value is “No virus was detected”.

What about the “inhibition effect on virus plaque number, VTT” value (VTT [2]) of the same compound?
The value was “no inhibition effects”.

And the “inhibition effect on virus plaque number, TT-EnvTK” value (TT-EnvTK)?
Its value is “clear inhibition effects”.

What about the “virus titre in mice ovaries, VTT inoculation, GCV injected” value (VTT [3]) of the same compound?
Its value is 1×10^6 PFU.

What about the “inhibition effect on virus plaque number, TT-TK” value (TT-TK [4]) of the same compound?
The value was “clear inhibition effects”.

Reference: patent US20180119171A1, “REPLICATIVE VACCINIA VIRUS VECTOR HIV VACCINE” (priority 2014, published 2018)
